This is an account of results in patent US5633255A, “1,2-dihydro-2-oxo-3-aminoquinoxaline derivatives, their preparation and their therapeutic application” (Pierre Fabre Medicament, priority 1992, dated 1997).

The term IC50 denotes the point on the concentration scale where inhibition reaches its midpoint.

Converted amounts (≈) assume the structure as drawn. Where a name gives a salt, the structure may show the parent alone.

The test system of one assay is trachea (contraction induced by histamine). Briefly: antagonism of the effect of histamine (contractions of isolated guinea pig trachea). The format is cell-based. The settings on record: Cavia porcellus, 5 min, histamine dihydrochloride 10 μg/ml, 5 min contact, 37° C. As to the method: (§1) To this end, the compounds were studied for their antagonistic effect on the contractions induced by various products according to the following procedure. A piece of trachea from a male three-colored guinea pig weighing 400 g on average is cut into rings and mounted (2.5 cm approximately) in an insulated organ tank which is thermostatted at 37° C. and filled with oxygenated Tyrode's solution. The isometric contractions induced by the various mediators are recorded using a Gould Statham UC2 sensor (Gould Inc. Oxnard, Calif., U.S.A.) or a Palmer Bioscience UF1 sensor connected to a potentiometric recorder ([…], Selb, FRG). At the start of the experiment, the fragment of trachea is subjected to a tension of 1 g and left to stand for 1 hour. The following mediator concentrations are used (concentrations generally inducing a maximum contraction): histamine dihydrochloride, 10 μg/ml; potassium chloride, 1850 μg/ml. The concentrations of agents used result in contractions which become maximal after 5 to 15 min. depending on the mediators and remain at a steady level thereafter. A concentration of the product studied is administered for each contraction and the product is left in contact with the trachea for 5 min. The possible inhibition obtained after this time is measured (percentage of variation in the amplitude of the contraction). The trachea is next washed for 15 seconds and left to stand for 10 min. approximately (time necessary to return to the base tonus) before inducing a new contraction. The water-insoluble products are diluted in 0.178% (v.v) (final bath concentration) dimethyl sulfoxide (DMSO). […] The 50% inhibitory concentrations (IC50) are calculated using an SAS (Statistical Analysis System) program based on the model of Bliss and […] (Bliss C. I. and […]. Biological Assay Ann. Rev. Physiol. 5, 479, 1943).
Regarding `CCCn1c(=O)c(N)nc2ccccc21.Cl` [Compound 5, 1-n-propyl-1,2-dihydro-2-oxo-3-aminoquinoxaline hydrochloride], 4.6 µg/mL corresponded to half-maximal inhibition (IC50).
`CCCn1c(=O)c(NC)nc2ccccc21.Cl` [Compound 6, 1-n-propyl-1,2-dihydro-2-oxo-3-methylaminoquinoxaline hydrochloride] registered an IC50 of 6.4 µg/mL.
As for `CCCn1c(=O)c(N(C)C)nc2ccccc21.Cl` [Compound 7, 1-n-propyl-1,2-dihydro-2-oxo-3-dimethylaminoquinoxaline hydrochloride], the midpoint of inhibition, the IC50, lay at 10.7 µg/mL.
On the same count and under the same terms, for `CCCCn1c(=O)c(N)nc2ccccc21` [Compound 8] the value was 1.7 µg/mL (≈ 7.82 µM); for `CCCCn1c(=O)c(NC)nc2ccccc21` [Compound 9], 0.55 µg/mL (≈ 2.38 µM); for `CCCCn1c(=O)c(N(C)C)nc2ccccc21` [Compound 10], 5.7 µg/mL (≈ 23.2 µM).
`C=CCn1c(=O)c(N)nc2ccccc21` [Compound 11] displayed an IC50 of 5.9 µg/mL (≈ 29.3 µM).
The same measure, in the same setting: for `C=CCn1c(=O)c(NC)nc2ccccc21` [Compound 12] the value was 1.1 µg/mL (≈ 5.11 µM); for `C=CCn1c(=O)c(N(C)C)nc2ccccc21` [Compound 13], 8.6 µg/mL (≈ 37.5 µM); for `CC(C)=CCn1c(=O)c(N)nc2ccccc21` [Compound 14, hydrochloride], 2.6 µg/mL.
Still for that read-out and setting: for `CNc1nc2ccccc2n(CC=C(C)C)c1=O` [Compound 15] the value was 0.65 µg/mL (≈ 2.67 µM).
Still for that read-out and setting: for `CC(C)=CCn1c(=O)c(N(C)C)nc2ccccc21` [Compound 16] the value was 13.5 µg/mL (≈ 52.5 µM); for `CC(C)(O)CCn1c(=O)c(N)nc2ccccc21` [Compound 17, 1-(3-methyl-3-hydroxy)butyl-1,2-dihydro-2-oxo-3-aminoquinoxaline hydrochloride], 23 µg/mL; for `Cn1c(=O)c2[nH]cnc2n(C)c1=O` [Theophylline, reference compound], 30 µg/mL (≈ 167 µM).

The test system of a further assay is trachea (contraction induced by potassium chloride). Briefly: antagonism of the effect of potassium chloride (contractions of isolated guinea pig trachea). The settings on record: Cavia porcellus, 5 min, potassium chloride 1850 μg/ml, 5 min contact, 37° C. It counts as cell-based. As to the method: as §1
The molecule `CCCn1c(=O)c(N)nc2ccccc21.Cl` [Compound 5, 1-n-propyl-1,2-dihydro-2-oxo-3-aminoquinoxaline hydrochloride] had an IC50 of 19.3 µg/mL.
Still for that read-out and setting: for `CCCn1c(=O)c(NC)nc2ccccc21.Cl` [Compound 6, 1-n-propyl-1,2-dihydro-2-oxo-3-methylaminoquinoxaline hydrochloride] the value was 4.7 µg/mL; for `CCCn1c(=O)c(N(C)C)nc2ccccc21.Cl` [Compound 7, 1-n-propyl-1,2-dihydro-2-oxo-3-dimethylaminoquinoxaline hydrochloride], 28 µg/mL.
On the same count and under the same terms, next, `CCCCn1c(=O)c(N)nc2ccccc21` [Compound 8]: 9.6 µg/mL (≈ 44.2 µM); `CCCCn1c(=O)c(NC)nc2ccccc21` [Compound 9]: 11.1 µg/mL (≈ 48 µM); `CCCCn1c(=O)c(N(C)C)nc2ccccc21` [Compound 10]: 45 µg/mL (≈ 183 µM).
The same measure, in the same setting: next, `C=CCn1c(=O)c(N)nc2ccccc21` [Compound 11]: 21 µg/mL (≈ 104 µM); `C=CCn1c(=O)c(NC)nc2ccccc21` [Compound 12]: 9.1 µg/mL (≈ 42.3 µM).
With `C=CCn1c(=O)c(N(C)C)nc2ccccc21` [Compound 13], the IC50 is 19.3 µg/mL (≈ 84.2 µM).
Same read-out and setting: for `CC(C)=CCn1c(=O)c(N)nc2ccccc21` [Compound 14, hydrochloride] the value was 7.4 µg/mL; for `CC(C)(O)CCn1c(=O)c(N)nc2ccccc21` [Compound 17, 1-(3-methyl-3-hydroxy)butyl-1,2-dihydro-2-oxo-3-aminoquinoxaline hydrochloride], 45 µg/mL.
Same read-out and setting: for `Cn1c(=O)c2[nH]cnc2n(C)c1=O` [Theophylline, reference compound] the value was 30 µg/mL (≈ 167 µM).

The next assay has as its system Zymosan Pleurisy. Briefly: pleurisy model with Zymosan in rats. The settings on record: po; rat, 100 mg/kg p.o. one hour before Zymosan (10 mg intrapleural), exudate measured 1 hour later; read-out: Zymosan Pleurisy volume pleural exudate. The format is in vivo, rat (male Sprague Dawley). The method, then: The compounds of the invention were also tested on the pleurisy model with Zymosan in rats ([…] et al. Pharmacol. Res., 21, 385, 1989) according to the following procedure: 10 mg of Zymosan in a volume of 0.15 ml of sterile 0.9% NaCl are injected into the pleural cavity of male Sprague Dawley rats mildly anesthetized with ether. The animals are sacrificed 1 hour later and the pleural exudate is withdrawn and measured. The animals are kept unfed from the evening before. The products are administered p.o. one hour before injection of the inflammation-inducing agent, at a dose of 100 mg/kg.
In the case of `CCCn1c(=O)c(N)nc2ccccc21.Cl` [Compound 5, 1-n-propyl-1,2-dihydro-2-oxo-3-aminoquinoxaline hydrochloride], the change in vivo at 100 mg/kg is -21%.
Turning to `CCCn1c(=O)c(NC)nc2ccccc21.Cl` [Compound 6, 1-n-propyl-1,2-dihydro-2-oxo-3-methylaminoquinoxaline hydrochloride], the change in vivo at 100 mg/kg was -27%.
With `CCCn1c(=O)c(N(C)C)nc2ccccc21.Cl` [Compound 7, 1-n-propyl-1,2-dihydro-2-oxo-3-dimethylaminoquinoxaline hydrochloride], the change in vivo at 100 mg/kg is -44%.
Still for that read-out and setting: next, `CCCCn1c(=O)c(N)nc2ccccc21` [Compound 8]: 4%; `CCCCn1c(=O)c(NC)nc2ccccc21` [Compound 9]: -29%.
For `CCCCn1c(=O)c(N(C)C)nc2ccccc21` [Compound 10], the change in vivo at 100 mg/kg is -47%.
The same measure, in the same setting: for `C=CCn1c(=O)c(N)nc2ccccc21` [Compound 11] the value was -33%.
Same read-out and setting: for `C=CCn1c(=O)c(NC)nc2ccccc21` [Compound 12] the value was -31%; for `C=CCn1c(=O)c(N(C)C)nc2ccccc21` [Compound 13], -43%.
With `CC(C)=CCn1c(=O)c(N)nc2ccccc21` [Compound 14, hydrochloride], the change in vivo at 100 mg/kg is -14%.
Same read-out and setting: for `CNc1nc2ccccc2n(CC=C(C)C)c1=O` [Compound 15] the value was -5%.
